Here are results for 32 compounds from US9822120B2, “Protein kinase inhibitors” (Pharmascience Inc., priority 2013, dated 2017).

Assay [1] has as its target histidine tagged recombinant human full-length Bruton Agammaglobulinemia Tyrosine Kinase (Btk) (Homo sapiens (Human), UniProt Q06187). Put plainly: Btk kinase inhibition assay, Method A (fluorescence polarization, KinEASE FP Fluorescein Green). The note with it: 10 μM ATP, 250 μM substrate, 60 minutes room temperature, Ki calculated from IC50 by Cheng-Prusoff equation. In kind it is biochemical. The procedure:
Btk Kinase Inhibition Assays
Fluorescence polarization-based kinase assays were performed in 384 well-plate format using histidine tagged recombinant human full-length Bruton Agammaglobulinemia Tyrosine Kinase (Btk) and a modified protocol of the KinEASE™ FP Fluorescein Green Assay supplied from Millipore®. Kinase reaction were performed at room temperature for 60 minutes in presence of 250 μM substrate, 10 μM ATP and variable test article concentrations. The reaction was stopped with EDTA/kinease detection reagents. Phosphorylation of the substrate peptide was detected by fluorescence polarization measured with a Tecan 500 instrument. From the dose-response curve obtained, the IC50 was calculated using Graph Pad Prisms® using a non linear fit curve. The Km for ATP on each enzyme was experimentally determined and the Ki values calculated using the Cheng-Prusoff equation (see: Cheng Y, Prusoff W. H. (1973) Relationship between the inhibition constant (K1) and the concentration of inhibitor which causes 50% inhibition (I50) of an enzymatic reaction”. Biochem. Pharmacol. 22 (23): 3099-108). ki values are reported in Tables 2a and 2b: […]

In the next assay the test system is splenocytes. Put plainly: Splenic cell proliferation assay (anti-IgM stimulated, Cell Titer-Glo). In kind it is cell-based. The note with it: Splenocyte; CD1 mouse splenocytes, 1 h pre-treatment, 2.5 ug/ml anti-IgM F(ab')2 for 72 h; read-out: EC50 (nM), Inhibition of splenic cell proliferation. From the text: Cellular Assay Splenic Cell Proliferation Assay
Proliferation of splenocytes in response to anti-IgM can be blocked by inhibition of Btk. Splenocytes were obtained from 6 week old male CD1 mice (Charles River Laboratories Inc.). Mouse spleens were manually disrupted in PBS and filtered using a 70 um cell strainer followed by ammonium chloride red blood cell lysis. Cells were washed, resuspended in Splenocyte Medium (HyClone RPMI supplemented with 10% heat-inactivated FBS, 0.5× non-essential amino acids, 10 mM HEPES, 50 uM beta mercaptoethanol) and incubated at 37° C., 5% CO2 for 2 h to remove adherent cells. Suspension cells were seeded in 96 well plates at 50,000 cells per well and incubated at 37° C., 5% CO2 for 1 h. Splenocytes were pre-treated in triplicate with 10,000 nM curves of Formula I compounds for 1 h, followed by stimulation of cell proliferation with 2.5 ug/ml anti-IgM F(ab′)2 (Jackson ImmunoResearch) for 72 h. Cell proliferation was measured by Cell Titer-Glo Luminescent Assay (Promega). EC50 values (50% proliferation in the presence of compound as compared to vehicle treated controls) were calculated from dose response compound curves using GraphPad Prism Software.

In a further assay the target is human BTK kinase (hBTK) (Homo sapiens (Human), UniProt Q06187). Kind of assay: Btk kinase inhibition assay, Method B (KinaseProfiler radiometric protein kinase assay, Eurofins). The assay is classed as biochemical. The note with it: [γ-33P-ATP], 40 minutes room temperature. The procedure:
In vitro potency of selected compound was defined against human BTK kinase (hBTK) using KinaseProfiler radiometric protein kinase assays performed at Eurofins Pharma Discovery Services UK Limited.
hBTK kinase is diluted in buffer and all compounds were prepared to 50× final assay concentration in 100% DMSO. This working stock of the compound was added to the assay well as the first component in the reaction, followed by the remaining components as detailed in the assay protocol listed above. The reaction was initiated by the addition of the MgATP mix. The kinase reaction was performed at room temperature for 40 minutes in presence of 250 μM substrate, 10 mM MgAcetate, [γ-33P-ATP] (specific activity approx. 500 cpm/pmol, concentration as required) and variable test article concentrations. The ATP concentrations in the assays were with 15 μM of the apparent. The reaction was stopped by the addition of 3% phosphoric acid solution. 10 μL of the reaction is then spotted onto a P30 filtermat and washed three times for 5 minutes in 75 mM phosphoric acid and once in methanol prior to drying and scintillation counting. In addition positive control wells contain all components of the reaction, except the compound of interest; however, DMSO (at a final concentration of 2%) were included in these wells to control for solvent effects as well as blank wells contain all components of the reaction, with a reference inhibitor replacing the compound of interest. This abolishes kinase activity and establishes the base-line (0% kinase activity remaining). The potency of each compound was reported by estimating the EC50.

The structures appear in SMILES notation.

human BTK kinase (hBTK), sequence (Q06187 whole entry): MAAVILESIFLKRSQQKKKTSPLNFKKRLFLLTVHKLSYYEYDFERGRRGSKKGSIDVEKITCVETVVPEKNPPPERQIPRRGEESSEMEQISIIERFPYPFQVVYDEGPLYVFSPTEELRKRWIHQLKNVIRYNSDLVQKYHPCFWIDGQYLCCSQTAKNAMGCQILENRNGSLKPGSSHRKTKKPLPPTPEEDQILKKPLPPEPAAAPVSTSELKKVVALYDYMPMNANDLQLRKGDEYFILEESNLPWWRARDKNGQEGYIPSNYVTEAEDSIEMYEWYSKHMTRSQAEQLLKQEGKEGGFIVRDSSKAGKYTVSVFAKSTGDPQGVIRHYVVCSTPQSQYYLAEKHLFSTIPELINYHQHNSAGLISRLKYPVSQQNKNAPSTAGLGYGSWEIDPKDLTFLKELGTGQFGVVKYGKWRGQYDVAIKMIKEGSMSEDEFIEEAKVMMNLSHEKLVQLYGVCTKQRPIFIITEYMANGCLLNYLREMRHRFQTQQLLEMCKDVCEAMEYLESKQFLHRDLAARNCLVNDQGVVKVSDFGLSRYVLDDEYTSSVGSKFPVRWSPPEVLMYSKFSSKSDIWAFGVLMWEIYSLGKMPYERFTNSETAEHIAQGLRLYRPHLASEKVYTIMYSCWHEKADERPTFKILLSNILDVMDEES
histidine tagged recombinant human full-length Bruton Agammaglobulinemia Tyrosine Kinase (Btk), sequence (Q06187 whole entry): as above

For orientation: Ki means the dissociation constant of the complex between target and ligand, obtained from inhibition or displacement. With `Cc1ncc(COc2cc(F)cc(Oc3ccc(-c4nc(C(C)C)n5ccnc(N)c45)cc3)c2)s1` [Compound 1], the Ki in assay [1] is < 100 nM. The EC50 with splenocytes was < 100 nM.
Regarding `Cc1ncc(COc2cc(F)cc(Oc3ccc(-c4nc(C(C)C)n5ccnc(N)c45)cc3)c2)cn1` [Compound 2], in assay [1], the Ki is < 100 nM. The EC50 in the assay on splenocytes is < 100 nM.
As to `Cc1ccc(COc2cc(F)cc(Oc3ccc(-c4nc(C(C)C)n5ccnc(N)c45)cc3)c2)cn1` [Compound 3], the Ki in assay [1] is < 100 nM. Further, the EC50 in the assay on splenocytes was < 100 nM.
Take `Cc1ncc(COc2cc(F)cc(Oc3ccc(-c4nc(C5CCCC5)n5ccnc(N)c45)cc3)c2)s1` [Compound 4]: the Ki in assay [1] was < 100 nM. The EC50 in the assay with splenocytes was < 100 nM.
Regarding `Cc1ccc(COc2cc(F)cc(Oc3ccc(-c4nc(C5CCCC5)n5ccnc(N)c45)cc3)c2)cn1` [Compound 5], the Ki in assay [1] was < 100 nM. The EC50 in the assay on splenocytes was < 100 nM.
Take `Cc1ncc(COc2cc(F)cc(Oc3ccc(-c4nc(C5CCCC5)n5ccnc(N)c45)cc3)c2)cn1` [Compound 6]: the Ki in assay [1] is < 100 nM. In the assay with splenocytes, the EC50 is < 100 nM.
On to `Cc1ncc(COc2cc(F)cc(Oc3ccc(-c4nc(C5CCOCC5)n5ccnc(N)c45)cc3)c2)s1` [Compound 7], for which the Ki in assay [1] is < 100 nM. Moreover, the EC50 with splenocytes was < 100 nM.
On to `Cc1ccc(COc2cc(F)cc(Oc3ccc(-c4nc(C5CCOCC5)n5ccnc(N)c45)cc3)c2)cn1` [Compound 8], for which, in assay [1], the Ki was < 100 nM. Besides, the EC50 in the assay on splenocytes is < 100 nM.
For `Cc1ncc(COc2cc(F)cc(Oc3ccc(-c4nc(C5CCOCC5)n5ccnc(N)c45)cc3)c2)cn1` [Compound 9], the inhibition constant Ki in assay [1] was < 100 nM. For the same compound, the EC50 in the assay on splenocytes was < 100 nM.
On to `Cc1ncc(COc2cc(F)cc(Oc3ccc(-c4nc(C5CC5)n5ccnc(N)c45)cc3)c2)s1` [Compound 10], for which the Ki in assay [1] is < 100 nM. For the same compound, in the assay on splenocytes, the EC50 is < 100 nM.
As to `Cc1ncc(COc2cc(F)cc(Oc3ccc(-c4nc(C5CC5)n5ccnc(N)c45)cc3)c2)cn1` [Compound 11], in assay [1], the Ki was < 100 nM. Also, in the assay on splenocytes, the EC50 was < 100 nM.
Regarding `Cc1ncc(COc2cc(F)cc(Oc3ccc(-c4nc(C5(C)COC5)n5ccnc(N)c45)cc3)c2)cn1` [Compound 12], in assay [1], the Ki was < 100 nM. Also, the EC50 in the assay with splenocytes was < 100 nM.
As to `Cc1ncc(COc2cc(F)cc(Oc3ccc(-c4nc([C@H]5C[C@@](C)(O)C5)n5ccnc(N)c45)cc3)c2)cn1` [Compound 13], the Ki in assay [1] was < 100 nM. In addition, the EC50 in the assay on splenocytes was < 100 nM.
Regarding `Cc1ncc(COc2cc(F)cc(Oc3ccc(-c4nc(C5CC(O)(CO)C5)n5ccnc(N)c45)cc3)c2)s1` (stereo not shown) [Compound 14], the Ki in assay [1] was < 100 nM. For the same compound, the EC50 in the assay on splenocytes is < 100 nM.
As to `Cc1ncc(COc2cc(F)cc(Oc3ccc(-c4nc(C5(C)COC5)n5ccnc(N)c45)cc3)c2)s1` [Compound 15], the Ki in assay [1] is < 100 nM. For the same compound, the EC50 in the assay with splenocytes is < 100 nM.
On to `Cc1ncc(COc2cc(F)cc(Oc3ccc(-c4nc([C@H]5C[C@@](C)(O)C5)n5ccnc(N)c45)cc3)c2)s1` [Compound 16], for which the Ki in assay [1] was < 100 nM. The EC50 in the assay with splenocytes is < 100 nM.
`Cc1ncc(COc2cc(F)cc(Oc3ccc(-c4nc(C5CC(=O)C5)n5ccnc(N)c45)cc3)c2)s1` [Compound 17]: the inhibition constant (Ki) in assay [1] was < 100 nM. In the assay with splenocytes, the EC50 is < 100 nM.
Regarding `Cc1ncc(COc2cc(F)cc(Oc3ccc(-c4nc(CCN5CCCC5)n5ccnc(N)c45)cc3)c2)cn1` [Compound 18], the Ki in assay [1] is < 100 nM. Moreover, in the assay with splenocytes, the EC50 was 100 to 1000 nM.
Consider `Cc1ncc(COc2cc(F)cc(Oc3ccc(-c4nc(C5CC(O)(CO)C5)n5ccnc(N)c45)cc3)c2)cn1` (stereo not shown) [Compound 19], for which, in assay [1], the inhibitory constant (Ki) is < 100 nM. In addition, in the assay with splenocytes, the EC50 was < 100 nM.
With `Cc1ncc(COc2cc(F)cc(Oc3ccc(-c4nc([C@H]5C[C@@H](N6CCN(C)CC6)C5)n5ccnc(N)c45)cc3)c2)s1` [Compound 20], the inhibitory constant (Ki) in assay [1] was < 100 nM. Moreover, in the assay on splenocytes, the EC50 was < 100 nM.
As for `Cc1ncc(COc2cc(F)cc(Oc3ccc(-c4nc(C5CC(=O)C5)n5ccnc(N)c45)cc3)c2)cn1` [Compound 21], the Ki in assay [1] was < 100 nM. Moreover, the EC50 with splenocytes is < 100 nM.
Take `Cc1ncc(COc2cc(F)cc(Oc3ccc(-c4nc([C@@H]5CCCNC5)n5ccnc(N)c45)cc3)c2)cn1` [Compound 22]: in assay [1], the inhibition constant Ki is < 100 nM. Moreover, in the assay with splenocytes, the EC50 is < 100 nM.
For the compound `CC(=O)N1CCC[C@@H](c2nc(-c3ccc(Oc4cc(F)cc(OCc5cnc(C)nc5)c4)cc3)c3c(N)nccn23)C1` [Compound 24], the Ki in assay [1] was < 100 nM. Also, in the assay on splenocytes, the EC50 is < 100 nM.
Consider `C[C@]1(O)C[C@@H](c2nc(-c3ccc(Oc4cc(F)cc(OCc5ccccc5)c4)cc3)c3c(N)nccn32)C1` [Compound 25], for which, in assay [1], the Ki was < 100 nM. Further, the EC50 with splenocytes is < 100 nM.
As to `CC(=O)N1CC(c2nc(-c3ccc(Oc4cc(F)cc(OCc5cnc(C)nc5)c4)cc3)c3c(N)nccn23)C1` [Compound 26], the Ki in assay [1] is < 100 nM. For the same compound, the EC50 in the assay on splenocytes was < 100 nM.
On to `Cc1ncc(COc2cc(F)cc(Oc3ccc(-c4nc(C5CNC5)n5ccnc(N)c45)cc3)c2)cn1` [Compound 27], for which the Ki in assay [1] is < 100 nM. Also, the EC50 in the assay with splenocytes fell in the range of 100 to 1000 nM.
As for `Cc1ncc(COc2cc(F)cc(Oc3ccc(-c4nc([C@H]5C[C@@H](O)C5)n5ccnc(N)c45)cc3)c2)cn1` [Compound 29], the EC50 at human BTK kinase (hBTK) and in the assay with splenocytes was < 100 nM each time.
As for `Cc1ncc(COc2cc(F)cc(Oc3ccc(-c4nc(C5CCNCC5)n5ccnc(N)c45)cc3)c2)cn1` [Compound 30], the EC50 at human BTK kinase (hBTK) and in the assay with splenocytes was < 100 nM in each case.
With `CC(=O)N1CCC(c2nc(-c3ccc(Oc4cc(F)cc(OCc5cnc(C)nc5)c4)cc3)c3c(N)nccn23)CC1` [Compound 31], the EC50 on human BTK kinase (hBTK) and in the assay with splenocytes was < 100 nM in each case.
Regarding `Cc1ncc(COc2cc(F)cc(Oc3ccc(-c4nc([C@H]5C[C@@H](N6CCOCC6)C5)n5ccnc(N)c45)cc3)c2)cn1` [Compound 33], the EC50 at human BTK kinase (hBTK) and with splenocytes was < 100 nM in each case.
Turning to `Cc1ncc(COc2cc(F)cc(Oc3ccc(-c4nc([C@@H]5CCCN(C6COC6)C5)n5ccnc(N)c45)cc3)c2)cn1` [Compound 34], the EC50 at human BTK kinase (hBTK) and with splenocytes was < 100 nM in each case.
`CC(C)c1nc(-c2ccc(Oc3cc(F)cc(OCc4ccc(CO)nc4)c3)cc2)c2c(N)nccn12` [Compound 35]: the EC50 at human BTK kinase (hBTK) and in the assay with splenocytes was < 100 nM in each case.
